“And” between values parts separate entries of the source, which are not always exact repeats. Equal entries are not always repeated. Residues, ends and D or L forms follow the SMILES beside them. No end group written: not given here.
Columns and labels:
[1] = tested on: post-surgical pain in rats; assay: oral administration, von Frey withdrawal response after plantar incision; type: in vivo; conditions: for Withdrawal Response Post-Dose / Post-Dose change of pain threshold (arrow): morphine sulfate 3.7 mg/kg; for Withdrawal Response Post-Dose: peptides 100 mg/kg; for Withdrawal Response Post-Surgery: 150 min after surgery, before dosing; for Withdrawal Response Pre-Surgery: baseline 15 min pre-surgery; for Post-Dose change of pain threshold (arrow): peptides 100 mg/kg oral; for effect when administered with aspirin / effect when administered with Naloxone / effect on pain threshold: oral; for effect when administered with aspirin: ASA 1 mg/kg co-administered (Groups 4, 6, 9); for effect when administered with Naloxone: Naloxone 2 mg/kg co-administered (Groups 3, 5, 8); for effect on pain threshold: with 0.9% saline as Treatment 1 (Groups 2, 7, 10)
From the text: Table VI below illustrates results from the oral administration of SEQ ID NO: 1 and SEQ ID NO: 153 and the effects of Naloxone and aspirin on their ability to decrease the pain threshold.
In this experiment animals were weighed and placed in the group numbers designated on the left hand column. Each group is composed of 10 rats. Animals were anesthetized with 1.8 to 4% isofluorane (delivered via a nose cone) and each received an intramuscular injection of penicillin (30,000 IU) in the triceps muscle after preparation of the foot with betadine and alcohol (SOPs VET-1 and VET-8). A 1 cm long incision of skin and fascia was made in the plantar aspect (heel, midfoot or distal pad area) of the right hind paw. No underlying muscle was incised. After hemostasis with gentle pressure, the incision was closed with one or two sutures (5-0 silk/nylon ophthalmic suture on a taper TF needle or equivalent). The wound site was covered with a mixture of polymixin B, neomycin, and bacitracin ointment. After surgery, rats were allowed to recover in their cages until behavioral testing. Prior to surgery, rats were placed individually on an elevated wire mesh floor covered with a clear plastic cage top and allowed to acclimate. Baseline pain behavior was measured as follows: Withdrawal responses to mechanical stimulation were determined using von Frey filaments applied from underneath the cage through openings (12×12 mm in the plastic mesh floor to an area adjacent to the intended incision). Each von Frey filament (Target force of 0.008 g to 300 g) was applied once starting with 0.008 g filament and continuing until a withdrawal response occurred or 300 g force was reached. The median force producing a response, determined from three tests given over a 10-min period was considered the withdrawal threshold. Rats were tested for responses 15 minutes pre-surgery, 150 minutes after surgery, and 20 minutes after treatment. Oral treatments 1 and 2 were co-administered 180 minutes after surgery. The test article/vehicle administration and pain measurements were as per Table below.
As illustrated by Table VI, SEQ ID NOs: 1 and 153 attenuate sensitization to von Frey mechanical stimuli after oral application. The response to the von Frey monofilament is in gram. Arrow up (1) indicates an increase in the pain threshold and arrow down (1) indicates a decrease in the threshold. Zero indicates no change.

[2] = feeding behavior of rats exposed to high levels of the peptide; type: in vivo; conditions: at least 3 days
From the text: Pain is basically managed by two classes of drugs. […] The peptide has no anti-inflammatory properties and this differentiates it pharmacologically from analgesics in the NSAID's.

[3] = solubility of test article in 0.9% saline; type: physicochemical; conditions: 100 mg/mL: 1.4 mL of saline added to 141.5 mg, room temperature
Procedure: The test article was SEQ ID NO: 1, a white powder, which was delivered in 0.9% saline. The test article formulations were prepared on the day of study and kept at room temperature until dosing. 100 mg/kg at 1 mL/kg=100 mg/mL 1.4 mL of saline added to 141.5 mg of test article, soluble.

[4] = tested on: Pseudomonas syringae pv tomato, DC3000; assay: systemic resistance of Arabidopsis plants to a virulent bacterial pathogen; type: in vivo, Arabidopsis ecotype Columbia (Col-0); conditions: 20 μl salicylic acid 1 mM and 20 μl SEQ ID NO: 15 applied to the leaves
Procedure: Seeds of Arabidopsis ecotype Columbia (Col-0) were planted in potting soil. Plants were cultivated in a growth chamber with 10-h d (200 μmol m^−2s^−1 at 22° C.) and 14-h night (18° C.) cycles and 80% RH. Once a week plants were supplied with water and modified one-half strength Hoagland nutrient solution: 2 mM KNO 5 mM Ca(NO3)2 and trace elements, pH 7.
A virulent plant pathogen, Pst Pseudomonas syringae pv tomato, DC3000 was grown at 28° C. on King's medium B containing 40 mg/L tetracycline. Plants were inoculated with 1×10^7 cfu/ml of the pathogen in 0.01% Silwet L77 (v/v) (a surfactant) and distilled water 5 weeks after sowing. The bacterial suspension or a control solution (0.01% Silwet L77 in water) was then sprayed on the plant once.
Disease symptoms in Arabidopsis are water-soaked, spreading lesions, sometimes surrounded by chlorotic margin that eventually lead to yield loss and plant death.
To test the efficacy of SEQ ID NO: 15, some healthy and some disease plants were sprayed with salicylic acid in 0.01%. Silwet L77; some healthy and some disease plants were sprayed with SEQ ID NO: 15 in 0.01%. Silwet L77, and some healthy and some disease plants were sprayed with salicylic acid in combination with SEQ ID NO: 15 in 0.01%. Silwet L77. A control group of some healthy and some disease plants were sprayed with water in 0.01%. Silwet L77. […]

[5] = tested on: Sauromatum guttatum appendix; assay: heat production by Sauromatum guttatum appendix sections treated with 2,6-dihydroxybenzoic acid (2,6-DHBA); conditions: second experiment, application up to 50 μM, data not shown
Procedure: In one example, using Sauromatum guttatum as the experimental module, on the day of inflorescence-opening, the Sauromatum appendix (a 20-40 cm-long, slender organ) becomes warm, reaching a 32° C. temperature (Skubatz et al., 1991, Plant Physiol. 95-1084-1088). The heat generated by the appendix is generated by the mitochondria. This mitochondrial activity can be triggered by the addition of phenolic compounds, including but not limited to, salicylic acid, aspirin, and 2,6-dihydroxybenzoic acid. Test agents can be applied to the plant and the plant's temperature may be monitored in vivo.
FIG. 6 illustrates modulation of heat generated by 2,6-dihydroxybenzoic acid in the presence of the Alzheimer's peptide, Aβ 1-42, SEQ ID NO: 49 and a plant gene derived sequence in the Sauromatum guttatum appendix. One day before heat-production, sections of the appendix were placed in different solutions containing 2,6-dihydroxybenzoic acid (2,6-DHBA) with or without SEQ ID NO: 2 (FLPSEFGVDVDR) and SEQ ID NO: 51. Heat-production was monitored with thermocouples attached to the sections. A section placed in distilled water that was not generated any heat is the control (water). […] The temperature was recorded every 5 min. […] This figure illustrates that these peptides modulate thermogenicity in plants as well as animals and act as mitochondrial modulators.

opioid receptor = assay: mechanism of action with Naloxone, antagonist of the opioid receptors (oral pain study); set-up: species or system rats; conditions: inferred from in vivo Naloxone co-administration, no binding test
Procedure: When Naloxene was administered with SEQ ID NO: 153 (Group 8), the effects of SEQ ID NO: 153 were reduced (compare Group 8 to Group 10) but unlike the case of Morphine (Group 3), not completely eliminated.

[6] = 20 min after oral treatment, co-administered ASA 1 mg/kg
[7] = 20 min after oral treatment, co-administered Naloxone 2 mg/kg
[8] = group later given Treatment 1 0.9% Saline + Treatment 2
[9] = group later given Treatment 1 ASA 1 mg/kg + Treatment 2
[10] = group later given Treatment 1 Naloxone 2 mg/kg + Treatment 2
[11] = group later given Treatment 1 0.9% Saline 2 mL/kg + oral Treatment 2 (morphine sulfate 3.7 mg/kg or peptide 100 mg/kg)
[12] = co-administered Naloxone 2 mg/kg

## CN1CC[C@]23c4c5ccc(O)c4O[C@H]2[C@@H](O)C=C[C@H]3[C@H]1C5.O=S(=O)(O)O [Morphine sulfate, reference compound]
[1]; 20 min after oral treatment at 180 min after surgery, Treatment 1 0.9% Saline 2 mL/kg, listed as Morphine, sulfate
  Withdrawal Response Post-Dose: 6.6 g
[1]; 20 min after oral treatment at 180 min after surgery, Treatment 1 0.9% Saline 2 mL/kg, sulfate
  Withdrawal Response Post-Dose: 6.6 ± 1.58 g
[1]; [6]
  Withdrawal Response Post-Dose: 5.5 ± 0.80 g
[1]; [7]
  Withdrawal Response Post-Dose: 3.5 ± 0.24 g
[1]; [8]
  Withdrawal Response Post-Surgery: 3.8 ± 0.52 g
[1]; [9]
  Withdrawal Response Post-Surgery: 4.3 ± 0.41 g
  Withdrawal Response Pre-Surgery: 21.9 ± 2.13 g
[1]; [10]
  Withdrawal Response Post-Surgery: 3.7 ± 0.39 g
  Withdrawal Response Pre-Surgery: 28.5 ± 4.53 g
[1]; [11]
  Withdrawal Response Pre-Surgery: 30.4 ± 3.29 g
[1]; [12]
  Post-Dose change of pain threshold (arrow): 0
[1]
  effect when administered with aspirin: aspirin reduced the effects of Morphine
  effect when administered with Naloxone: the effect of Morphine is eliminated
  effect on pain threshold: the pain threshold is increased

## CC(C)C[C@H](NC(=O)[C@@H](N)Cc1ccccc1)C(=O)N1CCC[C@H]1C(=O)N[C@@H](CO)C(=O)O [SEQ ID NO: 1, Phe-Leu-Pro-Ser] (H-FLPS-OH; N-terminus and C-terminus assumed)
[2]
  feeding behavior: did not invoke an abnormal feeding behavior
[3]
  solubility in saline: soluble

## O=C(O)c1ccccc1O [salicylic acid]
[4]
  systemic resistance to the virulent bacteria: enough to trigger systemic resistance

## FLPSEFGVDVDR [SEQ ID NO: 2]
[5]
  heat generation by the peptide: did not generate heat

## SPLF [SEQ ID NO: 153]
[1]; 20 min after oral treatment at 180 min after surgery, Treatment 1 0.9% Saline 2 mL/kg
  Withdrawal Response Post-Dose: 5.0 g and 5.0 ± 0.41 g
[1]; [6]
  Withdrawal Response Post-Dose: 5.7 g and 5.7 ± 0.56 g
[1]; [7]
  Withdrawal Response Post-Dose: 4.7 ± 0.45 g
[1]; [8]
  Withdrawal Response Post-Surgery: 4.5 g and 4.5 ± 0.32 g
[1]; [9]
  Withdrawal Response Post-Surgery: 4.7 ± 0.56 g
  Withdrawal Response Pre-Surgery: 29.2 ± 3.21 g
[1]; [10]
  Withdrawal Response Post-Surgery: 4.5 ± 0.55 g
  Withdrawal Response Pre-Surgery: 29.3 ± 4.00 g
[1]; Treatment 1 0.9% Saline 2 mL/kg
  Post-Dose change of pain threshold (arrow): 0
[1]; [11]
  Withdrawal Response Pre-Surgery: 28.1 ± 3.02 g
[1]; [12]
  Post-Dose change of pain threshold (arrow): 0
[1]
  effect when administered with aspirin: improved effect
  effect when administered with Naloxone: reduced
  effect on pain threshold: increases the pain threshold
Opioid receptor
  binding to the opioid receptor relative to Morphine and Naloxone: binds to the opioid receptor more tightly than Morphine, but less tightly than Naloxene

## YGGFL [SEQ ID NO: 15]
[4]
  systemic resistance to the virulent bacteria: enough to trigger systemic resistance

Reference: US7557088B2, “Methods and compositions for treating conditions” (NeoPro Labs, LLC, priority 2006, dated 2009)
